# Assay results taken from patent US20230083885A1, “MODULATORS OF INTEGRATED STRESS RESPONSE PATHWAY” (Praxis Biotech LLC, priority 2021, published 2023).
# pIC50: −log10 of the molar value. Where two headings read alike, the source gives them in different places.
# How the values were obtained:
# [1] = system: ATF4; test: ATF4 expression inhibition assay (ATF4 5'UTR luciferase reporter, thapsigargin-stressed); format: cell-based; details: Homo sapiens, HEK-293T, read-out: ATF4 inhibition
# Experimental: The ATF4 reporter was prepared by fusing the human full length 5′UTR of ATF4 (NCBI Accession No. BC022088.2) upstream of the firefly luciferase coding sequence lacking the initiator methionine. The fused sequence was cloned into pLenti-EF1a-C-Myc-DDK-IRES-Puro cloning vector (Origen #PS100085) using standard methods.
# HEK293T cells carrying the ATF4 luciferase reporter were plated on 96-well plates (Nunc) at 10,000 cells per well. Cells were treated two days after seeding with 100 nM thapsigargin (Tg) (Sigma-Aldrich #T9033) in the presence of different concentrations of selected compounds ranging from 0.1 nM to 10 μM. Cells without treatment or cells treated with Tg alone were used as controls. Assay plates containing cells were incubated for 3 hours at 37° C.
# Luciferase reactions were performed using Luciferase Assay System (Promega #E1501) as specified by the manufacturer. Luminescence was read with an integration time of 1 s and a gain of 110 using a Cytation-5 multi-mode microplate reader (BioTek).
# [2] = system: Chinese hamster ovary (CHO) cells; test: Protein synthesis assay (puromycin incorporation, Western blot); format: cell-based; details: Cricetulus griseus, read-out: % Protein synthesis relative to untreated (1 μM test compound)
# Experimental: Chinese hamster ovary (CHO) cells were maintained at 37° C. and 5% CO2 in Dulbecco's Modified Eagle's Media (DMEM) supplemented with 10% fetal bovine serum, 2 mM L-glutamine, 100 U/ml penicillin, and 100 μg/ml streptomycin. After reaching 80% of confluence, cells were detached and seeded on 6 well plates in complete media, allowed to recover overnight and treated for 2 hours with 1 μM of the test compound (to assess protein synthesis levels in unstressed condition), or for 2 hours with 300 nM Tg in the presence of 1 μM of the test compound (to assess the recovery of protein synthesis in a stressed condition). Cells with Tg alone were used as controls.
# After the 2 hours treatments, media were replaced by adding 10 μg/ml puromycin (Sigma Aldrich #P8833) in complete media for 30 min. Media were removed and cells were lysed with SDS-PAGE lysis buffer. Lysates were transferred to 1.5 ml tubes and sonicated for 3 min and total protein amount were quantified using BCA Protein Assay Kit (Pierce). Equal amount of protein (30 μg) was loaded on SDS-PAGE gels.
# A HRP-conjugated secondary antibody (Rockland) was employed to detect immune-reactive bands using enhanced chemiluminescence (ECL Western Blotting Substrate, Pierce). Quantification of protein bands was done by densitometry using ImageJ software.
# The percentage levels were normalized to the media alone condition, which correspond to 100% protein synthesis. […]
# [3] = HEK293T cells carrying ATF4 luciferase reporter, 100 nM thapsigargin, 3 hours
# [4] = unstressed CHO cells (without Tg), 1 μM test compound, 2 hours, media alone = 100%
Compound,"pIC50 [1, 3]","activity at 1 µM [2, 4] [%]",pIC50 ([1]; 3 h),"activity at 1 µM ([2]; CHO, 2 h) [%]"
"O=C(N[C@H]1CC[C@H](c2nnc(-c3ccc(Cl)cc3)o2)CC1)c1ccc2cc(Cl)ccc2n1 [Compound 5, trans-6-chloro-N-(4-(5-(4-chlorophenyl)-1,3,4-oxadiazol-2-yl)cyclohexyl)quinoline-2-carboxamide]",> 8.00,139,–,–
"O=C(Nc1ccc2cc(Cl)ccc2n1)[C@H]1CC[C@H](c2nnc(C3CCC(C(F)(F)F)CC3)o2)CC1 (stereo partly drawn) [Compound 29, trans-N-(6-chloroquinolin-2-yl)-4-(5-(4-(trifluoromethyl)cyclohexyl)-1,3,4-oxadiazol-2-yl)cyclohexanecarboxamide]",< 6.00,11.5,–,–
"O=C(COc1ccc(Cl)c(F)c1)N[C@H]1CC[C@H](n2cnc(-c3ccc(Cl)cc3)c2)CC1 [Compound 44, trans-2-(4-chloro-3-fluorophenoxy)-N-(4-(4-(4-chlorophenyl)-1H-imidazol-1-yl)cyclohexyl)acetamide]",> 8.00,39.5,–,–
"O=C(N[C@H]1CC[C@H](c2nnc(-c3ccc(Cl)cc3)o2)CC1)c1cnc(C(F)F)cn1 [Compound 15, trans-N-(4-(5-(4-chlorophenyl)-1,3,4-oxadiazol-2-yl)cyclohexyl)-5-(difluoromethyl)pyrazine-2-carboxamide]",7.00 to 8.00,103,–,–
"O=C(COc1ccc(Cl)c(F)c1)N[C@H]1CC[C@H](c2nnc([C@H]3C[C@@H](C(F)(F)F)C3)o2)CC1 [Compound 243, trans-2-(4-chloro-3-fluorophenoxy)-N-(4-(5-(cis-3-(trifluoromethyl)cyclobutyl)-1,3,4-oxadiazol-2-yl)cyclohexyl)acetamide]",7.00 to 8.00,-39.1,–,–
"O=C(Nc1ccc2cc(Cl)ccc2n1)[C@H]1CC[C@H](c2nnc([C@H]3CC[C@H](C(F)(F)F)CC3)o2)CC1 [Compound 30, trans-N-(6-chloroquinolin-2-yl)-4-(5-(trans-4-(trifluoromethyl)cyclohexyl)-1,3,4-oxadiazol-2-yl)cyclohexanecarboxamide]",6.00 to 7.00,16.7,–,–
"O=C(Nc1ccc2cc(Cl)ccc2n1)[C@H]1CC[C@H](c2nnc([C@H]3CC[C@@H](C(F)(F)F)CC3)o2)CC1 [Compound 31, trans-N-(6-chloroquinolin-2-yl)-4-(5-(cis-4-(trifluoromethyl)cyclohexyl)-1,3,4-oxadiazol-2-yl)cyclohexanecarboxamide]",< 6.00,4.9,–,–
"O=C(Nc1ccc2cc(Cl)ccc2n1)[C@H]1CC[C@H](c2nnc(Cc3ccc(Cl)cc3)o2)CC1 [Compound 237, trans-4-(5-(4-chlorobenzyl)-1,3,4-oxadiazol-2-yl)-N-(6-chloroquinolin-2-yl)cyclohexanecarboxamide]",7.00 to 8.00,51.3,–,–
"O=C(COc1ccc(Cl)c(F)c1)N[C@H]1CC[C@H](c2nnc(-c3ccc(Cl)cc3)o2)CC1 [Compound 7, trans-2-(4-chloro-3-fluorophenoxy)-N-(4-(5-(4-chlorophenyl)-1,3,4-oxadiazol-2-yl)cyclohexyl)acetamide]",> 8.00,80.9,–,–
"O=C(N[C@H]1CC[C@H](c2nnc(COc3ccc(Cl)cc3)o2)CC1)C1CNc2cc(Cl)ccc2O1 (stereo partly drawn) [Compound 11, trans-6-chloro-N-(4-(5-((4-chlorophenoxy)methyl)-1,3,4-oxadiazol-2-yl)cyclohexyl)-3,4-dihydro-2H-benzo[b][1,4]oxazine-2-carboxamide]",7.00 to 8.00,140,–,–
"O=C(COc1ccc(Cl)c(F)c1)N[C@H]1CC[C@H](c2nnc(C3CNc4cc(Cl)ccc4O3)o2)CC1 (stereo partly drawn) [Compound 18, trans-N-(4-(5-(6-chloro-3,4-dihydro-2H-benzo[b][1,4]oxazin-2-yl)-1,3,4-oxadiazol-2-yl)cyclohexyl)-2-(4-chloro-3-fluorophenoxy)acetamide]",> 8.00,127,–,–
"O=C(COc1ccc(Cl)c(F)c1)N[C@H]1CC[C@H](c2cnn(-c3ccc(Cl)cc3)c2)CC1 [Compound 37, trans-2-(4-chloro-3-fluorophenoxy)-N-(4-(1-(4-chlorophenyl)-1H-pyrazol-4-yl)cyclohexyl)acetamide]",> 8.00,24.3,–,–
"O=C(COc1ccc(Cl)c(F)c1)N[C@H]1CC[C@H](c2nnc(COc3ccc(Cl)cc3)o2)CC1 [Compound 12, trans-2-(4-chloro-3-fluorophenoxy)-N-(4-(5-((4-chlorophenoxy)methyl)-1,3,4-oxadiazol-2-yl)cyclohexyl)acetamide]",> 8.00,144,–,–
"O=C(Nc1ccc2cc(Cl)ccc2n1)[C@H]1CC[C@H](c2nc(-c3ccc(Cl)cc3)co2)CC1 [Compound 32, trans-4-(4-(4-chlorophenyl)oxazol-2-yl)-N-(6-chloroquinolin-2-yl)cyclohexanecarboxamide]",–,–,< 6.00,136
